Assay results published in patent publication US12421237B2, “Pesticidally active heterocyclic derivatives with sulfur containing substituents” (SYNGENTA PARTICIPATIONS AG, priority 2016, dated 2025).

Key:
Type in all cases: in vivo
[1] = test system: Bemisia tabaci (Cotton White Fly); assay: Bemisia tabaci (Cotton White Fly): Feeding/Contact Activity; settings: foliar, 144 h, application rate of 200 ppm, cotton leaf discs sprayed, adult white flies, 6 days after incubation
Experimental: Cotton leaf discs were placed on agar in 24-well microtiter plates and sprayed with aqueous test solutions prepared from 10,000 ppm DMSO stock solutions. After drying the leaf discs were infested with adult white flies. The samples were checked for mortality 6 days after incubation.

[2] = test system: Diabrotica Balteata (Corn Root Worm); assay: Diabrotica balteata (Corn Root Worm) maize sprout spray test; settings: 96 h, application rate of 200 ppm, maize sprouts sprayed, L2 larvae, 4 days after infestation, read-out: effect in at least one of the two categories (mortality or growth inhibition)
Experimental: Maize sprouts placed onto an agar layer in 24-well microtiter plates were treated with aqueous test solutions prepared from 10,000 ppm DMSO stock solutions by spraying. After drying, the plates were infested with L2 larvae (6 to 10 per well). The samples were assessed for mortality and growth inhibition in comparison to untreated samples 4 days after infestation.

[3] = test system: Euschistus heros (Neotropical Brown Stink Bug); assay: Euschistus heros (Neotropical Brown Stink Bug) soybean leaf spray test; settings: 120 h, application rate of 200 ppm, soybean leaves sprayed, N2 nymphs, 5 days after infestation, read-out: effect in at least one of the two categories (mortality or growth inhibition)
Experimental: Soybean leaves on agar in 24-well microtiter plates were sprayed with aqueous test solutions prepared from 10,000 ppm DMSO stock solutions. After drying the leaves were infested with N2 nymphs. The samples were assessed for mortality and growth inhibition in comparison to untreated samples 5 days after infestation.

[4] = test system: Frankliniella occidentalis (Western Flower Thrips); assay: Frankliniella occidentalis (Western Flower Thrips): Feeding/Contact Activity; settings: foliar, 168 h, application rate of 200 ppm, sunflower leaf discs sprayed, population of mixed ages, 7 days after infestation
Experimental: Sunflower leaf discs were placed on agar in 24-well microtiter plates and sprayed with aqueous test solutions prepared from 10,000 DMSO stock solutions. After drying the leaf discs were infested with a Frankliniella population of mixed ages. The samples were assessed for mortality 7 days after infestation.

[5] = test system: Myzus persicae (Green Peach Aphid); assay: Myzus persicae (Green Peach Aphid): Feeding/Contact Activity; settings: foliar, 144 h, application rate of 200 ppm, sunflower leaf discs sprayed, aphid population of mixed ages, 6 days after infestation
Experimental: Sunflower leaf discs were placed onto agar in a 24-well microtiter plate and sprayed with aqueous test solutions prepared from 10,000 ppm DMSO stock solutions. After drying, the leaf discs were infested with an aphid population of mixed ages. The samples were assessed for mortality 6 days after infestation.

[6] = test system: Myzus persicae (Green Peach Aphid); assay: Myzus persicae (Green Peach Aphid). Systemic Activity; settings: 144 h, test rate of 24 ppm, roots of infested pea seedlings in test solution, 6 days
Experimental: Roots of pea seedlings infested with an aphid population of mixed ages were placed directly into aqueous test solutions prepared from 10,000 DMSO stock solutions. The samples were assessed for mortality 6 days after placing seedlings into test solutions.

[7] = test system: Plutella xylostella (Diamond Back Moth); assay: Plutella xylostella (Diamond Back Moth) artificial diet test; settings: 120 h, application rate of 200 ppm, L2 larvae, 5 days after infestation, read-out: effect in at least one of the two categories (mortality or growth inhibition)
Experimental: 24-well microtiter plates with artificial diet were treated with aqueous test solutions prepared from 10,000 ppm DMSO stock solutions by pipetting. After drying, the plates were infested with L2 larvae (10 to 15 per well). The samples were assessed for mortality and growth inhibition in comparison to untreated samples 5 days after infestation.

[8] = test system: Spodoptera littoralis (Egyptian Cotton Leaf Worm); assay: Spodoptera littoralis (Egyptian Cotton Leaf Worm) systemic lettuce test; settings: 144 h, test rate of 12.5 ppm, compound in agar taken up by lettuce roots, eggs, 6 days after infestation, read-out: effect in at least one of the three categories (mortality, anti-feeding, or growth inhibition)
Description: Test compounds were applied by pipette from 10,000 ppm DMSO stock solutions into 24-well plates and mixed with agar. Lettuce seeds were placed onto the agar and the multi well plate was closed by another plate which contained also agar. After 7 days the compound was absorbed by the roots and the lettuce grew into the lid plate. The lettuce leaves were then cut off into the lid plate. Spodoptera eggs were pipetted through a plastic stencil onto a humid gel blotting paper and the lid plate was closed with it. The samples were assessed for mortality, anti-feedant effect and growth inhibition in comparison to untreated samples 6 days after infestation.

CCS(=O)(=O)c1cc(C2(C#N)CC2)cnc1-c1nc2cc(C(F)(F)F)nnc2n1C [Example H-1, 1-[5-Ethylsulfonyl-6-[7-methyl-3-(trifluoromethyl)imidazo[4,5-c]pyridazin-6-yl]-3-pyridyl]cyclopropanecarbonitrile]
≥ 80%: mortality at 200 ppm [1] | percent effect (mortality or growth inhibition) at 200 ppm [2] | percent effect (mortality or growth inhibition) at 200 ppm [3] | mortality at 200 ppm [4] | mortality at 200 ppm [5] | mortality at 24 ppm [6] | percent effect (mortality or growth inhibition) at 200 ppm [7] | percent effect (mortality, anti-feeding or growth inhibition) at 12.5 ppm [8]

CCSc1cc(C2(C#N)CC2)cnc1-c1nc2cc(C(F)(F)F)nnc2n1C [Example H-2, 1-[5-ethylsulfanyl-6-[7-methyl-3-(trifluoromethyl)imidazo[4,5-c]pyridazin-6-yl]-3-pyridyl]cyclopropanecarbonitrile]
≥ 80%: percent effect (mortality or growth inhibition) at 200 ppm [2] | percent effect (mortality or growth inhibition) at 200 ppm [3] | mortality at 200 ppm [4] | percent effect (mortality or growth inhibition) at 200 ppm [7]
